Measurements reported in patent US20260042764A1, “COMPOSITIONS AND METHODS FOR INHIBITION OF KRAS” (TheRas, Inc., priority 2022, published 2026).
Like-named read-outs stand apart in the source and are kept apart here.

How the values were obtained:
[1] = system: MKN1 cells (KRAS amplification); assay: 3D Cell viability assay in MKN1 cells (Biological Example 6); type: cell-based; settings: Homo sapiens, MKN-1; MKN (MKN1, KRAS amplification) spheroids, 72 hours
Method in brief: (§1)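 3D spheroid viability: 1000 cells/well, 48 h spheroid formation (10% FBS, 37 °C, 5% CO2); 9-pt 3-fold dose curve, 0.25% DMSO, 72 h; CTG 3D luminescence; EC50 by 4-parameter log(inhibitor) vs response fit.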

[2] = system: HT1080 cells (NRAS); assay: Cell-based pERK HTRF assay in HT1080 cells (Biological Example 5); settings: Homo sapiens, HT-1080
Method in brief: (§2)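 pERK1/2 (Thr202/Tyr204) HTRF read-out, 665/620 nm ratio, after lysis and 24 h antibody incubation at 4 °C; EC50 by variable-slope four-parameter model. Compounds applied for 2 h at 37 °C as 9 three-fold dilutions, 0.25% DMSO, to cells plated the day before in 10% FBS medium.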

[3] = system: KP-2 cells (KRAS G12R); assay: Cell-based pERK HTRF assay in KP-2 cells (Biological Example 5); settings: KP-2 (KRAS G12R) cells
Description: (§3) Biological Example 5: Cell-based PERK HTRF assay in AsPC-1, SW1900, HPAC, Capan-2, RKN, H358, HCT116, KP-2, H1573, A549, MKN1, and HT1080 cells
(§4) The inhibition of ERK phosphorylation, as measured using the HTRF Advanced Phospho-ERK 1/2 (Thr202/Tyr204) Detection Assay kit (Perkin Elmer), was used to determine the effectiveness of test compounds in disrupting KRAS-driven protein/effector signaling in cells.
(§5) On day 1, cells were seeded into 96-well plates at 2.5×10^4 cells/well in 100 μL of complete growth media supplemented with 10% fetal bovine serum (FBS) and incubated at 37° C., in the presence of 5% CO2.
(§6) On day 2, cells were treated with compounds diluted in DMSO at 0.25% final DMSO concentration. Compounds were dosed in a 9-point concentration curve with three-fold dilution between concentrations. Cells were incubated in the presence of compound for two hours at 37° C. Following this treatment period, cells were harvested by aspirating the media, adding 40 μL of kit-supplied 1x lysis buffer per well, and shaking for 30 minutes at 250 rpm at room temperature.
(§7) Following cell lysis, samples were homogenized by pipetting up and down twenty times and 16 μL of cell lysate per well was transferred from the 96-well cell culture plate to two wells of a 384-well detection plate. A complete detection buffer was prepared by diluting D2 and Eu Cryptate antibodies 1:20 in kit-provided detection solution, 4 μL of complete detection buffer was then added to each well with lysate. Plates were incubated with gentle rocking for 24 hours at 4° C.
(§8) Following this incubation period, plates were centrifuged at 500×g for one minute and analyzed on a CLARIOstar plate reader. Data was imported into Microsoft Excel and the signal from the 665 nm channel was divided by the signal from the 620 nm channel. % pERK was calculated as: […]
(§9) Data was imported to the Prism software package (Graphpad) and EC50 values were calculated using the log (inhibitor) vs, response—variable slopc (Four parameters) model.

[4] = system: AsPC-1 cells (KRAS G12D); assay: Cell-based pERK HTRF assay in AsPC-1 cells (Biological Example 5)
Method in brief: as §2

[5] = system: H1573 cells (KRAS G12A); assay: 3D Cell viability assay in H1573 cells (Biological Example 6); type: cell-based; settings: Homo sapiens, NCI-H1573; H1573 (KRAS G12A) spheroids, 72 hours
Method in brief: as §1

[6] = system: A549 cells (KRAS G12S); assay: Cell-based pERK HTRF assay in A549 cells (Biological Example 5); settings: Homo sapiens
Description: as §3, §4, §5, §6, §7, §8, §9

[7] = system: A549 cells (KRAS G12S); assay: 3D Cell viability assay in A549 cells (Biological Example 6); type: cell-based; settings: Homo sapiens; A549 (KRAS G12S) spheroids, 72 hours
Method in brief: as §1

[8] = system: HPAC cells (KRAS G12D); assay: Cell-based pERK HTRF assay in HPAC cells (Biological Example 5)
Method in brief: as §2

[9] = system: HCT116 cells (KRAS G13D); assay: 3D Cell viability assay in HCT116 cells (Biological Example 6); type: cell-based; settings: Homo sapiens, HCT-116; HCT116 (KRAS G13D) spheroids, 72 hours
Method in brief: as §1

[10] = system: SW1900 cells (KRAS G12D); assay: 3D Cell viability assay in SW1900 cells (Biological Example 6); type: cell-based; settings: Homo sapiens; SW1990 (text: SW1900, KRAS G12D) spheroids, 72 hours
Method in brief: as §1

[11] = system: HCT116 cells (KRAS G13D); assay: Cell-based pERK HTRF assay in HCT116 cells (Biological Example 5); settings: Homo sapiens, HCT-116
Description: as §3, §4, §5, §6, §7, §8, §9

[12] = system: Capan-2 cells (KRAS G12V); assay: 3D Cell viability assay in Capan-2 cells (Biological Example 6); type: cell-based; settings: Homo sapiens; Capan-2 (KRAS G12V) spheroids, 72 hours
Method in brief: as §1

[13] = system: HT1080 cells (NRAS); assay: 3D Cell viability assay in HT1080 cells (Biological Example 6); type: cell-based; settings: Homo sapiens, HT-1080; HT1080 (NRAS) spheroids, 72 hours
Method in brief: as §1

[14] = system: MKN1 cells (KRAS amplification); assay: Cell-based pERK HTRF assay in MKN1 cells (Biological Example 5)
Method in brief: as §2

[15] = system: RKN cells (KRAS G12V); assay: 3D Cell viability assay in RKN cells (Biological Example 6); type: cell-based; settings: RKN (KRAS G12V) spheroids, 72 hours
Method in brief: as §1

[16] = system: H1573 cells (KRAS G12A); assay: Cell-based pERK HTRF assay in H1573 cells (Biological Example 5); settings: Homo sapiens, NCI-H1573
Description: as §3, §4, §5, §6, §7, §8, §9

[17] = system: SW1900 cells (KRAS G12D); assay: Cell-based pERK HTRF assay in SW1900 cells (Biological Example 5)
Method in brief: as §2

[18] = system: Capan-2 cells (KRAS G12V); assay: Cell-based pERK HTRF assay in Capan-2 cells (Biological Example 5)
Method in brief: as §2

[19] = Homo sapiens, ASPC1, AsPC-1 (KRAS G12D) cells
[20] = Homo sapiens, MKN-1, MKN cells (MKN1, KRAS amplification)
[21] = Homo sapiens, SW1990, SW1990 cells (text: SW1900, KRAS G12D)
[22] = Homo sapiens, Capan-2, Capan-2 (KRAS G12V) cells

IC50 [1] [nM] | IC50 [2] [nM] | IC50 [3] [nM] | IC50 [5] [nM] | IC50 [6] [nM] | IC50 [7] [nM] | IC50 [9] [nM] | IC50 [10] [nM] | IC50 [11] [nM] | IC50 [13] [nM] | IC50 [16] [nM] | SMILES | IC50 [12] [nM] | IC50 [15] [nM] | IC50 [4, 19] [nM] | IC50 ([8]; Homo sapiens, HPAC) [nM] | IC50 [14, 20] [nM] | IC50 [17, 21] [nM] | IC50 [18, 22] [nM] | other results
≤ 100 | > 1000 | ≤ 100 | ≤ 100 | ≤ 100 | ≤ 100 | 100 to 1000 | ≤ 100 | ≤ 100 | > 1000 | ≤ 100 | CCN(c1nc(OC[C@@]23CCCN2C[C@H](F)C3)nc2c(F)c(-c3ccc(F)c4sc(N)c(C#N)c34)c(C(F)(F)F)cc12)[C@H]1CCN(C(=O)C(C)C)C1 [Compound 332] | ≤ 100 | ≤ 100 |  |  |  |  |  | IC50 ([4]; AsPC-1 (KRAS G12D) cells): ≤ 100 nM; IC50 [8]: ≤ 100 nM; IC50 ([14]; MKN cells (MKN1, KRAS amplification)): ≤ 100 nM; IC50 ([17]; SW1990 cells (text: SW1900, KRAS G12D)): ≤ 100 nM; IC50 ([18]; Capan-2 (KRAS G12V) cells): ≤ 100 nM
≤ 100 | > 1000 | 100 to 1000 | ≤ 100 | ≤ 100 | ≤ 100 | 100 to 1000 | ≤ 100 | ≤ 100 | > 1000 | ≤ 100 | CCN(c1nc(OC[C@@]23CCCN2C[C@H](F)C3)nc2c(F)c(-c3ccc(F)c4sc(N)c(C#N)c34)c(C(F)(F)F)cc12)[C@@H]1CCN(C(C)=O)C1 [Compound 268] | ≤ 100 | ≤ 100 | 100 to 1000 | ≤ 100 | ≤ 100 | ≤ 100 | ≤ 100 | 

SMILES | IC50 [1] [nM] | IC50 [2] [nM] | IC50 [3] [nM] | IC50 [5] [nM] | IC50 [6] [nM] | IC50 [7] [nM] | IC50 [9] [nM] | IC50 [10] [nM] | IC50 [11] [nM] | IC50 [13] [nM] | IC50 [16] [nM] | IC50 [12] [nM] | IC50 [15] [nM] | IC50 [4, 19] [nM] | IC50 ([8]; Homo sapiens, HPAC) [nM] | IC50 [14, 20] [nM] | IC50 [17, 21] [nM] | IC50 [18, 22] [nM] | other results
N#Cc1c(N)sc2c(F)ccc(-c3c(C(F)(F)F)cc4c(N5CC6CC(C5)O6)nc(OC[C@@]56CCCN5C[C@H](F)C6)nc4c3F)c12 (single isomer, unassigned) [Compound 275] | ≤ 100 | > 1000 | 100 to 1000 | ≤ 100 | ≤ 100 | ≤ 100 | 100 to 1000 | ≤ 100 | ≤ 100 | > 1000 | ≤ 100 | ≤ 100 | ≤ 100 | 100 to 1000 | 100 to 1000 | ≤ 100 | ≤ 100 | ≤ 100 | 
